The source of these data is patent publication US20250248979A1, “NOVEL GPX4 INHIBITORS AND USES THEREOF” (THE TRUSTEES OF COLUMBIA UNIVERSITY IN THE CITY OF NEW YORK, priority 2022, published 2025).

Structures are written as SMILES. “Also recorded” adds a separate entry of the source. Like-named read-outs stand apart in the source and are kept apart here.

Assay [1] deals with HT-1080 cells. The experiment in a line: Cellular dose response assay, HT-1080 with and without Fer-1. It counts as cell-based, human. The conditions noted are these: for Selectivity: ferroptosis selectivity; for ferroptosis induction / potency in HT-1080 cells, result in words: RSL3 as control. The text has this:
HT-1080 (human [Homo sapiens] […] fibrosarcoma), A-673 (human [Homo sapiens] […] Ewing's sarcoma), and SK-HEP-1 (human [Homo sapiens] […] hepatic adenocarcinoma), cells were obtained from ATCC. Huh7 (human [Homo sapiens] […] hepatocellular carcinoma), HLF (human [Homo sapiens] […] hepatocellular carcinoma), HepG2 (human [Homo sapiens] […] hepatocellular carcinoma), cells were obtained from the Cancer Cell Bank at Columbia University Irving Medical Center. HT-1080, A-673, Huh-7, and HLF cells were grown in Dulbecco's Modified Eagle Medium (DMEM) supplemented with 10% heat inactivated fetal bovine serum (HI-FBS), 1% non-essential amino acids, and 1% penicillin streptomycin. HepG2 and SK-HEP-1 cells were grown in Eagle's Minimum Essential Medium (EMEM) supplemented with 10% HI-FBS, and 1% penicillin-streptomycin. All cells were cultured at 37° C. and 5% CO2.
HT-1080, HepG2, Huh7, HLF, and SK-HEP-1 cells were seeded into opaque white 384-well plates at 1500 cells per well then incubated at 37° C. with 5% CO2 overnight. The next day, compounds of interest were dissolved in DMSO and 12-point 2-fold dilution series were prepared with and without Fer-1. Cells were treated in triplicate (final DMSO concentration of 0.4% in all wells, including DMSO-only control wells) and incubated for a further 48 hours at 37° C. and 5% CO2. Cell viability was evaluated using CellTiter-Glo (Promega G7573) and luminescence was recorded on a Victor 5 plate reader. Data were analyzed in GraphPad Prism 9 and error bars represent standard deviation values for three technical replicates in a representative experiment.

Assay [2] concerns the target T1, GPX4 (Homo sapiens, UniProt P36969).
T1 sequence (P36969 1-170 isoform P36969-2): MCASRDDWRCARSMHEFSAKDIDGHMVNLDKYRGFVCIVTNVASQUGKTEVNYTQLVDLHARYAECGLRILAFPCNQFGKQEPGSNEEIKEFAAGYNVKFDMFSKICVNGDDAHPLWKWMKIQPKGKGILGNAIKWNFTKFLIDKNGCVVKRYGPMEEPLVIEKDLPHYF
Nature of the assay: GPX4 activity assay in cell lysates (NADPH-coupled). Also on record: endogenous in cells; host or cells: A-673 cell lysate. It is filed as biochemical. In a few lines: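 Native GPX4 in lysates of A-673 cells grown with 20 nM sodium selenite; lysate preincubated with compound 45 min at 37 °C in pH 8.0 buffer with 3 mM GSH, 0.5 mM NADPH and glutathione reductase. Reaction started with phosphatidylcholine hydroperoxide; NADPH consumption followed at 340 nm over 25 min; triplicates.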

The mark [3] stands for this setting: HT1080 + Fer-1, read-out: IC50 (uM) HT1080 + Fer-1.
[4] abbreviates: HT1080, without Fer-1, read-out: IC50 (uM) HT1080.
The mark [5] stands for this setting: with Fer-1, Table 10, read-out: IC50 (μM) HT1080 + Fer-1.
Where [6] appears, read: without Fer-1, Table 10, read-out: IC50 (μM) HT1080.

The term IC50 denotes the concentration needed to halve the response being measured. With `COc1c(F)cc(-c2ccc3c(C(=O)NC(C)(C)C(C)(C)OC(=O)CCl)nn(C)c3c2)cc1Cl` [QW-796], the IC50 stood at 2.6 µM in assay [1] (setting [3]) and 2.4 µM in assay [1] (setting [4]). The Selectivity in assay [1] (HT1080 + Fer-1 vs HT1080) is listed as 1.1. Besides, in assay [2], the “GPX4% inhibition at 2.5 μM” value is listed as 4.6 ± 14.4%.
The like results for `COc1ccc(-c2ccc3c(C(=O)NCC(C)(C)OC(=O)CCl)nn(C)c3c2)cc1Cl` [QW-774] were, in that order, 8.8 µM, 3.7 µM, 2.4 and −25.3 ± 6.9%.
On to `Cn1nc(-n2cc(C(C)(C)COC(=O)CCl)nn2)c2ccc(-c3ccc4c(c3)OCO4)cc21` [QW-696], for which the IC50 in assay [1] (setting [3]) came to 8.8 µM; in assay [1] (setting [4]) it was 2.9 µM. Further, the Selectivity in assay [1] (HT1080 + Fer-1 vs HT1080) was determined as 3.0. In assay [2], the “GPX4% inhibition at 2.5 μM” value is 22.3 ± 37.1%.
On the same counts, the results for `CCOCCOc1ccc(-c2ccc3c(C(=O)NC(C)(C)COC(=O)CCl)nn(C)c3c2)cc1` [QW-605] are 17.5 µM, 1.9 µM, 9.2 and 60.9 ± 15.7%.
Consider `COc1ccc(-c2ccc3c(C(=O)NC(C)(C)COC(=O)CCl)nn(Cc4ccc(Cl)cc4)c3c2)cc1Cl` [QW-823], for which the “ferroptosis induction / potency in HT-1080 cells, result in words” value (from here on “ferroptosis induction / potency”) in assay [1] is “good potency in cell and selectivity to GPX4; also recorded: outstanding cytotoxicity with sub-molar scale”. The Selectivity in assay [1] (IC50 with Fer-1 / IC50) stood at 34.5. Besides, the values for the half-inhibitory concentration (IC50) in assay [1] (setting [5]) and in assay [1] (setting [6]) were 11.4 µM and 0.33 µM, respectively. In assay [2], the “GPX4 inhibitory activity, result in words” value was “greater GPX4 inhibitory activity than QW-446”. For the same compound, the “GPX4% inhibition at 2.5 μM” value in assay [2] (4th generation) was determined as 95.0 ± 13.1%.
On to `CSc1ccc(-c2ccc3c(C(=O)NC(C)(C)COC(=O)CCl)nn(Cc4ccc(Cl)cc4)c3c2)cc1Cl` [QW-847], for which the Selectivity in assay [1] (IC50 with Fer-1 / IC50) was 9.6. Further, the IC50 in assay [1] (setting [5]) was determined as 98.4 µM; in assay [1] (setting [6]), 10.2 µM. Besides, in assay [2] (4th generation), the “GPX4% inhibition at 2.5 μM” value came out at 88.5 ± 16.1%.
For `COc1c(Cl)cc(-c2ccc3c(C(=O)NC(C)(C)COC(=O)CCl)nn(C)c3c2)cc1C(F)(F)F` [QW-815], the IC50 in assay [1] (setting [3]) is 16.7 µM; in assay [1] (setting [4]) it was 0.58 µM. The “ferroptosis induction / potency” value in assay [1] is “sub-molar range cellular activities and decreased ferroptosis selectivity”. The Selectivity in assay [1] (HT1080 + Fer-1 vs HT1080) stood at 28.8. The “GPX4% inhibition at 2.5 μM” value in assay [2] worked out at 79.3 ± 5.5%.
Turning to `COc1c(Cl)cc(-c2ccc3c(-n4cc(C(C)(C)COC(=O)CCl)nn4)nn(C)c3c2)cc1Cl` [QW-712], the figures for the IC50 in assay [1] (setting [3]) and in assay [1] (setting [4]) were 28.4 µM and 1.9 µM, respectively. The “ferroptosis induction / potency” value in assay [1] was “less potent compared to RSL3”. Moreover, in assay [1] (HT1080 + Fer-1 vs HT1080), the Selectivity is on record as 14.9. The “GPX4% inhibition at 2.5 μM” value in assay [2] is 68.5 ± 9.4%.
On to `COc1c(F)cc(-c2ccc3c(-n4cc(C(C)(C)COC(=O)CCl)nn4)nn(C)c3c2)cc1Cl` [QW-801], for which the results for the IC50 in assay [1] (setting [3]) and in assay [1] (setting [4]) were 14.3 µM and 8.4 µM, respectively. In addition, the Selectivity in assay [1] (HT1080 + Fer-1 vs HT1080) is 1.7. Also, the “GPX4% inhibition at 2.5 μM” value in assay [2] came out at 58.1 ± 9.2%.
On to `COc1c(Cl)cc(-c2ccc3c(C(=O)NC(C)(C)COC(=O)CCl)nn(C)c3c2)cc1Cl` [QW-711], for which, in assay [1] (setting [3]), the IC50 was determined as 31.7 µM. Besides, the IC50 in assay [1] (setting [4]) is 1.4 µM. In addition, the “ferroptosis induction / potency” value in assay [1] is “less potent compared to RSL3”. Besides, the Selectivity in assay [1] (HT1080 + Fer-1 vs HT1080) is on record as 22.6. Further, in assay [2], the “GPX4 inhibitory activity, result in words” value is “further increase the inhibitory activity” and the “GPX4% inhibition at 2.5 μM” value is 98.4 ± 17.6%.
For the compound `Cn1nc(C(=O)NC(C)(C)C(C)(C)OC(=O)CCl)c2ccc(-c3ccc(OC(C)(C)C)cc3)cc21` [QW-770], the concentration for half-maximal inhibition (IC50) in assay [1] (setting [3]) was determined as 2.2 µM; in assay [1] (setting [4]) it was 1 µM. The Selectivity in assay [1] (HT1080 + Fer-1 vs HT1080) is 2.2. Further, the “GPX4% inhibition at 2.5 μM” value in assay [2] is listed as −36.4 ± 19.3%.
Consider `COc1ccc(-c2cc(Cl)cc(Cn3nc(C(=O)NC(C)(C)C(C)(C)OC(=O)CCl)c4ccc(-c5ccc(OC)c(Cl)c5)cc43)c2)cc1Cl` [QW-888], for which the Selectivity in assay [1] (IC50 with Fer-1 / IC50) is 2.0. Also, the IC50 turned out to be 49.6 µM in assay [1] (setting [5]) and 24.5 µM in assay [1] (setting [6]). For the same compound, in assay [2] (4th generation), the “GPX4% inhibition at 2.5 μM” value was 78.7 ± 5.0%.
